Key:
Experiment in all cases: Antimicrobial activity, diffusion agar technique
Format in all cases: cell-based
Conditions in all cases: well diameter 6.0 mm, 100 μl
[1] = test system: Absidia corymbffera (RCMB 02564)
Procedure: (§1) The antimicrobial effect of the katononic acid nanosheets was evaluated against gram positive bacteria, gram negative bacteria, and fungi. The diffusion agar technique was used with a well diameter of 6.0 mm and 100 μl of katononic acid nanosheets.

[2] = test system: Candida albicans (RCMB 05036)
Procedure: as §1

[3] = test system: Geotricum candidum (RCMB 05097)
Procedure: as §1

[4] = test system: Staphylococcus aureus (RCMB 010027)
Procedure: as §1

[5] = test system: Staphylococcus epidermidis (RCMB 010024)
Procedure: as §1

[6] = test system: Streptococcus pyogenes (RCMB 010015)
Procedure: as §1

[7] = test system: Klebsiella pneumoniae (RCMB 0010093)
Procedure: as §1

[8] = test system: Proteous vulgaris (RCMB 010085)
Procedure: as §1

[9] = test system: Salmonella enteritidis (RCMB 010084)
Procedure: as §1

## C[C@@H]1[C@H](O)[C@@H](C)/C=C/C=C/C=C/C=C/C=C/C=C/C=C/[C@H](O[C@@H]2O[C@H](C)[C@@H](O)[C@H](N)[C@@H]2O)C[C@@H]2O[C@](O)(C[C@@H](O)C[C@@H](O)[C@H](O)CC[C@@H](O)C[C@@H](O)CC(=O)O[C@H]1C)C[C@H](O)[C@H]2C(=O)O [Amphotericin B]
[1]
  Zone of Inhibition (±SD): 23.0 ± 0.10
[2]
  Zone of Inhibition (±SD): 25.7 ± 0.10
[3]
  Zone of Inhibition (±SD): 27.0 ± 0.20

## CC1(C)S[C@@H]2[C@H](NC(=O)[C@H](N)c3ccccc3)C(=O)N2[C@H]1C(=O)O [Ampicillin]
[4]
  Zone of Inhibition (±SD): 27.3 ± 0.14
[5]
  Zone of Inhibition (±SD): 25.0 ± 0.18
[6]
  Zone of Inhibition (±SD): 26.3 ± 0.34

## Gentamycin
[7]
  Zone of Inhibition (±SD): 26.4 ± 0.15
[8]
  Zone of Inhibition (±SD): 23.4 ± 0.30
[9]
  Zone of Inhibition (±SD): 25.2 ± 0.18

— patent publication US10086027B1, “Green synthesis of katononic acid nanosheets” (KING SAUD UNIVERSITY, priority 2018, dated 2018)
